Target: Human eIF4E (aa 28-217) / biotin labeled 4G2 peptide (Homo sapiens (Human), UniProt P06730)
Assay: Human eIF4E/4G2 binding assay (TR-FRET)
Settings: Human eIF4E/4G2 TR-FRET binding assay; head says IC50, legend says EC50
Outline: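 Refolded His-tagged human eIF4E (aa 28-217), 82.5 nM working stock, preincubated 4 h at RT with compounds (10-point 2-fold series) in NaPi pH 6.5 buffer with DTT and gamma globulin. Biotin-4G2 peptide then added for 20 min, followed by Eu-streptavidin/APC-anti-His for 20 min; TR-FRET 665/615 nm ratio normalized, IC50 fitted.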

Human eIF4E (aa 28-217) / biotin labeled 4G2 peptide, sequence (P06730 28-217): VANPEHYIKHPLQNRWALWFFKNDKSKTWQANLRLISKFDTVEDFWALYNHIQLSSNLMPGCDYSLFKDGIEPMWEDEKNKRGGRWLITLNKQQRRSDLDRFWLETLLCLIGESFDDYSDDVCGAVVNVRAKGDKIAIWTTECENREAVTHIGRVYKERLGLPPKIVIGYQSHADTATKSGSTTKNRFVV

| IC50 [nM] | Structure (SMILES) |
| --- | --- |
| 1000 to 10000 | CC(C)c1sc(NCC(Cc2cccc(O)c2)C(=O)O)nc1-c1ccc(Cl)cc1 (stereo not shown) [I-41] |
| 1000 to 10000 | Cc1noc(CN(CCC(=O)O)c2nc(-c3ccc(Cl)c(Cl)c3)c(CC(C)C)s2)n1 [I-68] |
| 1000 to 10000 | CC(C)Cc1sc(NCC(Cc2ccncc2)C(=O)O)nc1-c1ccc(Cl)c(Cl)c1 (stereo not shown) [I-152] |
| > 10000 | COc1cccc(-c2nc(NCC(Cc3ccccc3)C(=O)O)sc2C(C)C)c1 (stereo not shown) [I-28] |
| 1000 to 10000 | CC(C)Cc1sc(-c2ccc(Br)c(C(=O)O)c2)nc1-c1ccc(Cl)c(Cl)c1 [I-224, 2-bromo-5-(4-(3,4-dichlorophenyl)-5-isobutylthiazol-2-yl)benzoic acid] |
| > 10000 | CC(C)Cc1sc(N(CCC(=O)O)Cc2ccccc2)nc1-c1ccncc1 [I-84] |
| ≤ 1000 | CC(C)c1sc(Nc2ncc(Cc3ccccc3)cc2C(=O)O)nc1-c1ccc(Cl)c(C(F)(F)F)c1 [I-265] |
| > 10000 | COc1ncc(CC(CNc2nc(-c3ccc(Cl)c(Cl)c3)c(CC(C)C)s2)C(=O)O)cn1 (stereo not shown) [I-160] |
| 1000 to 10000 | COc1cccc(-c2nc(NCC(Cc3cccc4c3OCO4)C(=O)O)sc2C(C)C)c1 (stereo not shown) [I-29] |
| > 10000 | CC(C)Cc1sc(N(CCCCCC(N)=O)CCC(=O)O)nc1-c1ccc(Cl)c(Cl)c1 [I-149] |
| ≤ 1000 | COc1ccccc1CC(CNc1nc(-c2ccc(Cl)c(Cl)c2)c(C(C)C)s1)C(=O)O (stereo not shown) [I-3] |
| 1000 to 10000 | CC(C)Cc1sc(NCC(NC(=O)c2ccccc2)C(=O)O)nc1-c1ccc(Cl)c(Cl)c1 (stereo not shown) [I-136, 2-benzamido-3-(4-(3,4-dichlorophenyl)-5-isobutylthiazol-2-ylamino)propanoic acid] |
| 1000 to 10000 | Cc1ccc(CC(CNc2nc(-c3ccc(Cl)c(Cl)c3)c(CC(C)C)s2)C(=O)O)c(C)n1 (stereo not shown) [I-157] |
| 1000 to 10000 | CC(C)Cc1sc(N2CCN(C(=O)c3ccccc3)C(C(=O)O)C2)nc1-c1ccc(Cl)c(Cl)c1 (stereo not shown) [I-246, 1-benzoyl-4-(4-(3,4-dichlorophenyl)-5-isobutylthiazol-2-yl)piperazine-2-carboxylic acid] |
| > 10000 | CNC(=O)CCN(Cc1ccccc1)c1nc(-c2ccc(Cl)c(Cl)c2)c(CC(C)C)s1 [I-200, 3-(benzyl(4-(3,4-dichlorophenyl)-5-isobutylthiazol-2-yl)amino)-N-methylpropanamide] |
| ≤ 1000 | CC(C)Cc1sc(Nc2ccc(F)c(C(=O)O)c2)nc1-c1ccc(Cl)c(Cl)c1 [I-209] |
| 1000 to 10000 | CC(C)Cc1sc(-c2cccc(C(=O)O)n2)nc1-c1ccc(Cl)c(Cl)c1 [I-228, 6-(4-(3,4-dichlorophenyl)-5-isobutylthiazol-2-yl)picolinic acid] |
| 1000 to 10000 | CC(C)Cc1sc(N(CCC(=O)NS(C)(=O)=O)Cc2ccccc2)nc1-c1ccc(Cl)c(Cl)c1 [I-97, 3-(benzyl(4-(3,4-dichlorophenyl)-5-isobutylthiazol-2-yl)amino)-N-(methylsulfonyl)propanamide] |
| ≤ 1000 | CC(C)Cc1sc(N(CCC(=O)O)Cc2cccc(F)c2)nc1-c1ccc(Cl)c(Cl)c1 [I-51] |
| > 10000 | CC(C)Cc1sc(NCC(N)C(=O)O)nc1-c1ccc(Cl)c(Cl)c1 (stereo not shown) [I-115, 2-amino-3-(4-(3,4-dichlorophenyl)-5-isobutylthiazol-2-ylamino)propanoic acid] |
| 1000 to 10000 | CC(C)Cc1sc(N(CCC(=O)N2CCNCC2)Cc2ccccc2)nc1-c1ccc(Cl)c(Cl)c1 [I-134] |
| 1000 to 10000 | CC(C)Cc1sc(Nc2cc(C(=O)O)ccc2-c2ccccc2)nc1-c1ccc(Cl)c(Cl)c1 [I-255] |

| IC50 [nM] | Structure (SMILES) |
| --- | --- |
| ≤ 1000 | CC(C)c1sc(Nc2ncccc2C(=O)O)nc1-c1ccc(Cl)c(C(F)(F)F)c1 [I-261] |
| > 10000 | CC(C)Cc1sc(N2CCN(C)C(C(=O)O)C2)nc1-c1ccc(Cl)c(Cl)c1 (stereo not shown) [I-86] |
| ≤ 1000 | CC(C)Cc1sc(N(CCC(=O)O)Cc2cccc3c2OCO3)nc1-c1ccc(Cl)c(Cl)c1 [I-48] |
| ≤ 1000 | CC(C)Cc1sc(-c2ccc(C(=O)O)s2)nc1-c1ccc(Cl)c(Cl)c1 [I-229] |
| > 10000 | CC(C)Cc1sc(NCC(CCCCN(C)C)C(=O)O)nc1-c1ccc(Cl)c(Cl)c1 (stereo not shown) [I-145, 2-((4-(3,4-dichlorophenyl)-5-isobutylthiazol-2-ylamino)methyl)-6-(dimethylamino) hexanoic acid] |
| ≤ 1000 | COc1ccccc1CC(CNc1nc(-c2ccc(Cl)c(Cl)c2)c(CC(C)C)s1)C(=O)O (stereo not shown) [I-20] |
| > 10000 | CC(=O)NC(CNc1nc(-c2ccc(Cl)c(Cl)c2)c(CC(C)C)s1)C(=O)O (stereo not shown) [I-140] |
| ≤ 1000 | CC(C)Cc1sc(NCC(Cc2cccc3c2OCO3)C(=O)O)nc1-c1ccc(Cl)c(Cl)c1 (stereo not shown) [I-19] |
| 1000 to 10000 | CC(C)Cc1sc(N(CCC(=O)O)Cc2ccccc2)nc1-c1ccc(Cl)cc1 [I-93] |
| ≤ 1000 | CC(C)Cc1sc(Nc2cc(C(=O)O)cc(-c3ccccc3)c2)nc1-c1ccc(Cl)c(Cl)c1 [I-215, 5-(4-(3,4-dichlorophenyl)-5-isobutylthiazol-2-ylamino)biphenyl-3-carboxylic acid] |
| ≤ 1000 | CC(C)c1sc(Nc2c(C(=O)O)sc3ccccc23)nc1-c1ccc(Cl)c(C(F)(F)F)c1 [I-281] |
| ≤ 1000 | CC(C)Cc1sc(Nc2cc(-c3ccccc3)sc2C(=O)O)nc1-c1ccc(Cl)c(Cl)c1 [I-270] |
| 1000 to 10000 | Cc1cc(Nc2nc(-c3ccc(Cl)c(Cl)c3)c(CC(C)C)s2)cc(C(=O)O)c1 [I-214] |
| 1000 to 10000 | CC(C)Cc1sc(N(CCO)CCC(=O)O)nc1-c1ccc(Cl)c(Cl)c1 [I-66] |
| 1000 to 10000 | CC(C)Cc1sc(NCC(Cc2ccc(C(N)=O)cc2)C(=O)O)nc1-c1ccc(Cl)c(Cl)c1 (stereo not shown) [I-166, 2-(4-carbamoylbenzyl)-3-(4-(3,4-dichlorophenyl)-5-isobutylthiazol-2-ylamino)propanoic acid] |
| > 10000 | CC(C)Cc1sc(N(CCC(=O)N2CCN(C)CC2)Cc2ccccc2)nc1-c1ccc(Cl)c(Cl)c1 [I-133, 3-(benzyl(4-(3,4-dichlorophenyl)-5-isobutylthiazol-2-yl)amino)-1-(4-methylpiperazin-1-yl)propan-1-one] |
| 1000 to 10000 | COc1ccc(CC(CNc2nc(-c3ccc(Cl)c(Cl)c3)c(CC(C)C)s2)C(=O)O)cn1 (stereo not shown) [I-163] |
| 1000 to 10000 | CC(C)Cc1sc(N(CCC(=O)O)Cc2ccncc2)nc1-c1ccc(Cl)c(Cl)c1 [I-63] |
| 1000 to 10000 | O=C(O)C(CNc1nc(-c2ccc(Cl)c(Cl)c2)c(C2CC2)s1)Cc1cccc(F)c1 (stereo not shown) [I-14] |
| ≤ 1000 | CC(C)Cc1sc(N(CCC(=O)O)Cc2cccs2)nc1-c1ccc(Cl)c(Cl)c1 [I-65] |
| 1000 to 10000 | CC(C)Cc1sc(NCC(Cc2cccc(S(C)(=O)=O)c2)C(=O)O)nc1-c1ccc(Cl)c(Cl)c1 (stereo not shown) [I-172] |
| > 10000 | CC(C)Cc1sc(N2CCN(C(=O)CCN)C(C(=O)O)C2)nc1-c1ccc(Cl)c(Cl)c1 (stereo not shown) [I-199, 1-(3-aminopropanoyl)-4-(4-(3,4-dichlorophenyl)-5-isobutylthiazol-2-yl)piperazine-2-carboxylic acid] |

| IC50 [nM] | Structure (SMILES) |
| --- | --- |
| 1000 to 10000 | COc1cccc(-c2nc(NCC(Cc3ccccc3OC)C(=O)O)sc2C(C)C)c1 (stereo not shown) [I-30] |
| ≤ 1000 | COCCOc1ccc(-c2nc(Nc3ncc(-c4cccs4)cc3C(=O)O)sc2CC(C)C)cc1Cl [I-327] |
| > 10000 | CC(C)Cc1sc(Nc2cccc(C(=O)NCCN)c2)nc1-c1ccc(Cl)c(Cl)c1 [I-218, N-(2-aminoethyl)-3-(4-(3,4-dichlorophenyl)-5-isobutylthiazol-2-ylamino)benzamide] |
| 1000 to 10000 | C=Cc1sc(N(CCC(=O)O)Cc2ccccc2)nc1-c1ccc(Cl)c(Cl)c1 [I-129, 3-(benzyl(4-(3,4-dichlorophenyl)-5-vinylthiazol-2-yl)amino)propanoic acid] |
| ≤ 1000 | CC(C)Cc1sc(Nc2cc(C(C)(C)C)sc2C(=O)O)nc1-c1ccc(Cl)c(Cl)c1 [I-274] |
| ≤ 1000 | CC(C)Cc1sc(Nc2ncccc2C(=O)O)nc1-c1ccc(Cl)c(Cl)c1 [I-233] |
| 1000 to 10000 | CNC(=O)c1cccc(CC(CNc2nc(-c3ccc(Cl)c(Cl)c3)c(CC(C)C)s2)C(=O)O)c1 (stereo not shown) [I-169] |
| > 10000 | CC(C)Cc1sc(N(CCC(=O)O)CC2CCN(C)CC2)nc1-c1ccc(Cl)c(Cl)c1 [I-88] |
| 1000 to 10000 | CC(C)Cc1sc(N(CCC(=O)NCC(=O)O)Cc2ccccc2)nc1-c1ccc(Cl)c(Cl)c1 [I-196] |
| 1000 to 10000 | CC(C)Cc1sc(N(CCC(=O)NCCN)Cc2ccccc2)nc1-c1ccc(Cl)c(Cl)c1 [I-131, N-(2-aminoethyl)-3-(benzyl(4-(3,4-dichlorophenyl)-5-isobutylthiazol-2-yl)amino)propanamide] |
| ≤ 1000 | CC(C)c1sc(NCC(CCc2ccccc2)C(=O)O)nc1-c1ccc(Cl)c(Cl)c1 (stereo not shown) [I-6] |
| 1000 to 10000 | CC(C)Cc1sc(N(CCCO)CCC(=O)O)nc1-c1ccc(Cl)c(Cl)c1 [I-70] |
| ≤ 1000 | CCOc1ccc(-c2nc(Nc3ncc(-c4cccs4)cc3C(=O)O)sc2CC(C)C)cc1Cl [I-330] |
| ≤ 1000 | CC(C)c1sc(Nc2cc(-c3ccccc3)sc2C(=O)O)nc1-c1ccc(Cl)c(C(F)(F)F)c1 [I-279, 3-(4-(4-chloro-3-(trifluoromethyl)phenyl)-5-isopropylthiazol-2-ylamino)-5-phenylthiophene-2-carboxylic acid] |
| 1000 to 10000 | COc1cccc(-c2nc(NCC(Cc3ccc4[nH]ccc4c3)C(=O)O)sc2C(C)C)c1 (stereo not shown) [I-37] |
| ≤ 1000 | CC(C)Cc1sc(Nc2ccc(-c3ccccc3)cc2C(=O)O)nc1-c1ccc(Cl)c(Cl)c1 [I-235] |
| 1000 to 10000 | CC(C)Cc1sc(NCC(Cc2c[nH]c3ccccc23)C(=O)O)nc1-c1ccc(Cl)c(Cl)c1 (stereo not shown) [I-26] |
| ≤ 1000 | CC(C)Cc1sc(-c2ccc(-c3ccccc3)c(C(=O)O)c2)nc1-c1ccc(Cl)c(Cl)c1 [I-225] |
| ≤ 1000 | CC(C)c1sc(Nc2ncc(C(F)(F)F)cc2C(=O)O)nc1-c1nc2ccccc2s1 [I-320, 2-(4-(benzo[d]thiazol-2-yl)-5-isopropylthiazol-2-ylamino)-5-(trifluoromethyl)nicotinic acid] |
| ≤ 1000 | CC(C)Cc1sc(Nc2ccc(-c3ccccc3)c(C(=O)O)c2)nc1-c1ccc(Cl)c(Cl)c1 [I-216] |

From patent publication US11753403B2, “EIF4E inhibitors and uses thereof” (PIC Therapeutics, Inc., priority 2020, dated 2023)
